Measured values: ChEMBL document CHEMBL1201862, “PubChem BioAssay data set” (2004)
Activity calls are given as the source filed them.

Legend:
[1] = inhibition of ARNT PAS-B/TACC3 complex formation – biochemical, AlphaScreen, cherry-picked samples, confirmation (AID 651703); format: functional, Homo sapiens;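 further: His-tagged ARNT PAS-B domain paired with GST-TACC3 E629A dimer coactivator fragment; potency of inhibitors that break up the complex and lower AlphaScreen signal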
[2] = system: HEK293; experiment: inhibition of NOD1-driven NF-kB reporter – cell-based, luminescence, uHTS, primary screen (AID 1578); format: functional; conditions: Homo sapiens
[3] = system: Streptococcus sp. 'group A'; experiment: Streptococcus pyogenes SK(-)GAS viability under kanamycin – luminescence, BacTiterGlo, confirmation, counter-screen for streptokinase expression inhibitor project, dose response (AID 1900); format: functional, organism-based
[4] = system: HEK293; experiment: cells; format: functional, cell-based; conditions: Homo sapiens
[5] = system: HEK293; experiment: NOD2 signaling inhibitors in MDP-stimulated cells, cell-based, uHTS, luminescence (AID 2001); format: functional; conditions: Homo sapiens
[6] = target: Mu-type opioid receptor (Homo sapiens, UniProt P35372); experiment: Counterscreen for agonists of heterodimerization of the mu 1 (OPRM1) and delta 1 (OPRD1) opioid receptors: Luminescence-based cell-based high throughput dose response assay to identify agonists of OPRM1 homodimerization.; format: functional;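 further: U2OS cells expressing OPRM1 and beta-arrestin as split beta-galactosidase partners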
Chain of Mu-type opioid receptor (P35372 whole entry): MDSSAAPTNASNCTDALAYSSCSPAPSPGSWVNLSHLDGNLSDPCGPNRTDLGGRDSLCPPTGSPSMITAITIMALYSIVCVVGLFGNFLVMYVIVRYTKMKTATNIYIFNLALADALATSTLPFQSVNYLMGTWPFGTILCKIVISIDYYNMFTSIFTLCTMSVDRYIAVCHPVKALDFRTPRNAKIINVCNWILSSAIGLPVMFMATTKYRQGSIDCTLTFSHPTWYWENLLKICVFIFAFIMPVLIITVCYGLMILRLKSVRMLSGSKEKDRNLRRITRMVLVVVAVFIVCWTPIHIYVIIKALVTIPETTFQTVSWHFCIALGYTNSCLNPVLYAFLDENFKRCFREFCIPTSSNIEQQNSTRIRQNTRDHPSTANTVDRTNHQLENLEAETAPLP

[7] = system: H4; experiment: Inhibitors of Prion Protein 5' UTR mRNA Measured in Cell-Based System Using Plate Reader - 2078-01_Inhibitor_Dose_DryPowder_Activity. [Related pubchem assays (depositor defined):AID488894]; format: functional; conditions: Homo sapiens
[8] = target: Polyadenylate-binding protein 1 (Homo sapiens, UniProt P11940); experiment: MLLE domain peptide-binding blockers, IC50 – biochemical, fluorescence polarization, FITC-PAM2 peptide, dose response (AID 602259); format: functional; conditions: read-out: IC50_Mean
Chain of Polyadenylate-binding protein 1 (P11940 whole entry, the tested form may be a part): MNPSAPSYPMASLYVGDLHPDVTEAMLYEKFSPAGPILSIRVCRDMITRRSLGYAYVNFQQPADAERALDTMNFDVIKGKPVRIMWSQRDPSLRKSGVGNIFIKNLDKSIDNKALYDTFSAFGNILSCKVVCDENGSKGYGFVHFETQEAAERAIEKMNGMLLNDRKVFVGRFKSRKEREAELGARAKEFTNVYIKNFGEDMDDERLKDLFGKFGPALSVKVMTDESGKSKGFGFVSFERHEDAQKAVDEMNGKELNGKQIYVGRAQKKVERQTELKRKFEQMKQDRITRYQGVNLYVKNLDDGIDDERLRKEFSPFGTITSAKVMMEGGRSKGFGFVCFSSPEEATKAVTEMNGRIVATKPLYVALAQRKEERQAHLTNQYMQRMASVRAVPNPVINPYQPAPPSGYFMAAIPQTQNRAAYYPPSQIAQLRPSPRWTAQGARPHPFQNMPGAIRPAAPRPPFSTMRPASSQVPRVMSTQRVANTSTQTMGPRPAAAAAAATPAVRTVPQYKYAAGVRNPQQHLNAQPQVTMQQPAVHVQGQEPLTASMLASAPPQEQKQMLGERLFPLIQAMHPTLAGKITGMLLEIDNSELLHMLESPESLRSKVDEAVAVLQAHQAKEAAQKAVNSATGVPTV

[9] = target: T1, Serine/threonine-protein phosphatase (Homo sapiens, UniProt Q9BPW0); experiment: inhibition of protein phosphatase 5 activity – biochemical, fluorescence, dose response (AID 2395)
T1 sequence (Q9BPW0 whole entry): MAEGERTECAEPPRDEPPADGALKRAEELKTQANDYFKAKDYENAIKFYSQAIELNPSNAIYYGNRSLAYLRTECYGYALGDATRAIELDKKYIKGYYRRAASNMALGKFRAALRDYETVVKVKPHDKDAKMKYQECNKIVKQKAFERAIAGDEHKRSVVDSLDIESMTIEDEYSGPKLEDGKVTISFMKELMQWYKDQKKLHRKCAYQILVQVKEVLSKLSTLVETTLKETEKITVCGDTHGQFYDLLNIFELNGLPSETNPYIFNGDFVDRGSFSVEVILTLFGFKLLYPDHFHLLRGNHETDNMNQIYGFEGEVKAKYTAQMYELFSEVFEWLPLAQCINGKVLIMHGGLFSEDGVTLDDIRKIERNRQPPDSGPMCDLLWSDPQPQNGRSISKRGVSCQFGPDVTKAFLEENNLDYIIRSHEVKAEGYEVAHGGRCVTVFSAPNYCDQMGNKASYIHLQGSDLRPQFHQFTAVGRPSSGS

[10] = target: T2, Caspase-3 (Homo sapiens, UniProt P42574); format: functional;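 further: Dose-response selectivity test against caspase-3 for candidate inhibitors of sentrin-specific proteases (SENPs)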
T2 sequence (P42574 whole entry): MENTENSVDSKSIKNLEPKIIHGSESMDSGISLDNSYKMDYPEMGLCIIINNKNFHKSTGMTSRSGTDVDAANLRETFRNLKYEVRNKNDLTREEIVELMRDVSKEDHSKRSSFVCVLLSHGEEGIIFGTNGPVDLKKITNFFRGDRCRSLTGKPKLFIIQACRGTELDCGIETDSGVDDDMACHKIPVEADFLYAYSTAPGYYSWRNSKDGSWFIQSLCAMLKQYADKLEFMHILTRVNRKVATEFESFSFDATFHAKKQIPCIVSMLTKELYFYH

[11] = target: T3, Sentrin-specific protease 6 (Homo sapiens, UniProt Q9GZR1); experiment: SAR Analysis of small molecule inhibitors of Sentrin-specific protease 6 (SENP6) using a Luminescent assay. [Related pubchem assays (depositor defined):AID2582, AID2599]; format: functional
T3 sequence (Q9GZR1 whole entry): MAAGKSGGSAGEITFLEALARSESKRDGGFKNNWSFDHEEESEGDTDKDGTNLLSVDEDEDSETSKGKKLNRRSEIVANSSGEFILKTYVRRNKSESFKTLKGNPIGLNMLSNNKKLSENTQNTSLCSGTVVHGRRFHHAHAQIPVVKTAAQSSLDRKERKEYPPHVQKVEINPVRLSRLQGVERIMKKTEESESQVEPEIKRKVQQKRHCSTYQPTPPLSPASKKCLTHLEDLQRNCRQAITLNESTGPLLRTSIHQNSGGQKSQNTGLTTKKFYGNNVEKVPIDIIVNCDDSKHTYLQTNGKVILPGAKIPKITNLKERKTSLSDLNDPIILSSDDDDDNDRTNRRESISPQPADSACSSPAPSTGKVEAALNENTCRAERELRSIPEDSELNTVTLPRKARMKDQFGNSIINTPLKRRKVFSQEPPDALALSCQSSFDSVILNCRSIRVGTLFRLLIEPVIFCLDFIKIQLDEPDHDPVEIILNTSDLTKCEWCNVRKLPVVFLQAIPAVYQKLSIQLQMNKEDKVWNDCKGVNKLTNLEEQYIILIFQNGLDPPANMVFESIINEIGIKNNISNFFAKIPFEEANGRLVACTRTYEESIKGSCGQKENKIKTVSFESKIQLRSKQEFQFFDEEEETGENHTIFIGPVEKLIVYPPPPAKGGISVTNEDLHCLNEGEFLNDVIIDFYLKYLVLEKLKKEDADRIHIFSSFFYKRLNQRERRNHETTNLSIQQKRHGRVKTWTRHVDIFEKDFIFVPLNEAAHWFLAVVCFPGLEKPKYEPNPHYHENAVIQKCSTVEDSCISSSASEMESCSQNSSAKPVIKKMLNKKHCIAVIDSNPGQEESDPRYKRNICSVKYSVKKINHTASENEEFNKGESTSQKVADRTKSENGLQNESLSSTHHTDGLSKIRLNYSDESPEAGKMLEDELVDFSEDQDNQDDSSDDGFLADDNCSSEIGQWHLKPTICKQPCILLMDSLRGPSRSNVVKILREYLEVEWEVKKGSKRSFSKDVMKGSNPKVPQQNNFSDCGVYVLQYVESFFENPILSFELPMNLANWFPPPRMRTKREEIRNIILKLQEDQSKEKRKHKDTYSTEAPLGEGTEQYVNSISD

COC(=O)c1cccc(-c2ccc(C(c3c(C)n[nH]c3O)c3c(C)n[nH]c3O)o2)c1
AC50 [1]: 87.9 µM (active)

Cc1cc(/C=C2\SC(=S)N(C)C2=O)c(C)n1-c1ccc(O)cc1
EC50 [2]: 9.47 µM (active) | EC50 [3]: 3.41 µM (active) | IC50 [4]: 0.345 µM (active) | IC50 [5]: 6.54 µM (inactive) | EC50 [6]: > 92.5 µM (inactive) | AC50 [7]: 0.181 µM (active)

O=C1/C(=N\c2cccc(O)c2)C(N2CCCCC2)=C(O)c2ccccc21
IC50 [8]: > 66 µM (inactive)

Cc1ccc(C(=O)NNc2cc(N3CCCC3)nc(N3CCCC3)n2)cc1
IC50 [9]: 4.1 µM (active) | IC50 [10]: > 100 µM (inactive) | IC50 [11]: 2.3 µM (active)
